Reference: US10208056B2, “Condensed tricyclic compounds as protein kinase inhibitors” (FUNDACIÓN DEL SECTOR PÚBLICO ESTATAL CENTRO NACIONAL DE …, priority 2015, dated 2019)
Where two headings read alike, the source gives them in different places. Values belong to the compound of their own block, whether it stands above or below them.

Assays:
[1] = system: MDA-MB-231; test: In vitro cell proliferation assay (CellTiter-Glo), MDA-MB-231; format: cell-based; details: Homo sapiens, MDA-MB-231, growth inhibition, read-out: GI50 MDA-MB-231
[2] = system: HCT116; test: Combination assay, HCT116; format: cell-based
Description: (§1) The combination index (CI) of combinations of certain example compounds and various chemotherapeutic agents in the CellTitetI-Glo® in vitro cell proliferation assays may be tested. A combination index score is calculated by the Chou and Talalay method (CalcuSyn software, Biosoft). The strength of synergy is scored using the ranking system Chou and Talalay: CI less than 0.8 indicates synergy, CI between 0.8 and 1.2 indicates additivity and CI greater than 1.2 indicates antagonism.
(§2) The EC50 values of representative combinations are also calculated. The individually measured EC50 values of the chemotherapeutic agent and the example compounds are compared to the EC50 value of the combination. The cell lines are characterised by tumor type. Combination assays are performed as described in: “Pim 1 kinase inhibitor ETP-45299 suppresses cellular proliferation and synergizes with PI3K inhibition”. Blanco-Aparicio, Carmen; Collazo, Ana Maria Garcia; Oyarzabal, Julen; Leal, Juan F.; Albaran, Maria Isabel; Lima, Francisco Ramos; Pequeno, Belen; Ajenjo, Nuria; Becerra, Mercedes; Alfonso, Patricia; Reymundo, Maria Isabel; Palacios, Irene; Mateos, Genoveva; Quinones, Helena; Corrionero, Ana; Carnero, Amancio; Pevarello, Paolo; Lopez, Ana Rodriguez; Fominaya, Jesus; Pastor, Joaquin; Bischoff, James R. Cancer Letters (Shannon, Ireland) 2011, 300(2), 145-153

[3] = system: SW620 cells; test: Colony formation assay; format: cell-based, human; details: SW620 cells treated 11 days
Description: The in vitro potency of the compounds was measured by colony formation assays. SW620 cells in logarithmic growth phase are plated at 800 cells per well in 6-well plates (Solmeglas 13118) in RPMI media (Sigma-Aldrich R6504) supplemented with 10% foetal bovine serum (Sigma-Aldrich F7524), Penicillin/Streptomycin solution diluted 1:100 (Gibco 15070-063), and fungizone (Gibco, 15290-018), and allowed to adhere overnight at 37° C. in 5% CO2. Compounds are then added to the cell media from a final concentration of 10 μM in 10-fold serial dilutions and the cells are incubated at 37° C. in 5% CO2. Every three days the medium is changed by fresh medium and compounds are added again. After 11 days, colonies are washed with PBS and fixed in 0.5% crystal violet (Sigma-Aldrich Ref. V5265), 6% glutaraldehide (Sigma-Aldrich Ref. G5882) for 30 minutes. After extensive washing, colonies are dissolved in 2 ml of 10% glacial acetic acid (Sigma-Aldrich Ref. 537020) and absorbance at 590 nm is measured in the Victor 1420 Multilabel Counter (Perkin Elmer). The absorbance in cells treated with DMSO is taken as hundred percent of proliferation. The percentage of proliferation is finally plotted against concentration for each compound and EC50s for colony formation inhibition are calculated using ActivityBase from IDBS.

[4] = system: SKMEL19; test: Combination assay, SKMEL19; format: cell-based
Description: as §1, §2

[5] = system: MDAMB231; test: Combination assay, MDAMB231; format: cell-based
Description: as §1, §2

[6] = system: SW620; test: Combination assay, SW620; format: cell-based, human
Outline: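 Cells treated with example compounds combined with chemotherapeutic agents, proliferation read by CellTiter-Glo. Combination index from the Chou–Talalay method (CI <0.8 synergy, 0.8–1.2 additivity, >1.2 antagonism); EC50 of the combination also derived alongside single-agent EC50s.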

[7] = HCT116, combination with Alisertib
[8] = HCT116, combination with Crizotinib
[9] = SKMEL19, combination with Crizotinib
[10] = SKMEL19, combination with Elesclomol
[11] = MDAMB231, combination with Elesclomol
[12] = SW620, combination with ABT-751
[13] = SW620, combination with Alisertib
[14] = SW620, combination with Crizotinib
[15] = SW620, combination with Elesclomol
[16] = SW620, combination with Oxaliplatin

GI50 ([1]; semiquantitative): 10 to 100 µM
Compound: CCn1c(C(N)=O)c(-c2ccccc2OC)c2c1-c1ccncc1OC2(C)C [Example 68]

GI50 ([1]; semiquantitative): 10 to 100 µM
Compound: NC(=O)c1cc2c([nH]1)-c1ccncc1O[C@H]2C1CCOCC1 (single isomer, unassigned) [Example 72]

GI50 ([1]; semiquantitative): 1 to 10 µM
Compound: CC1(C)Oc2cnccc2-c2c1cc(C(N)=O)n2CCF [Example 52]

GI50 ([2]; Homo sapiens, HCT-116, HCT116, example compound alone, read-out: CDK8 inh GI50): 5 µM | EC50 ([3]; Homo sapiens, SW-620, 264 h, read-out: mean EC50, colony forming assay): 0.051 ± 0.069 µM | GI50 ([4]; Homo sapiens, SK-MEL19, SKMEL19, example compound alone, read-out: CDK8 inh GI50): 1.25 µM | GI50 ([1]; quantitative): 3.5 µM | GI50 ([5]; Homo sapiens, MDA-MB-231, MDAMB231, example compound alone, read-out: CDK8 inh GI50): 5 µM | GI50 ([6]; Homo sapiens, SW-620, SW620, example compound alone, read-out: CDK8 inh GI50): 4 µM
Compound: CCn1c(C(N)=O)cc2c1-c1ccncc1OC2(C)C [Example 43]
Combination index (CI) [2, 7]: 0.64 | Synergy [2, 7]: ++ (0.3 < CI < 0.7 (++)) | Combination index (CI) [2, 8]: 0.58 | Synergy [2, 8]: ++ (0.3 < CI < 0.7 (++)) | Combination index (CI) ([2]; HCT116, combination with Taxol): 0.63 | Synergy ([2]; HCT116, combination with Taxol): ++ (0.3 < CI < 0.7 (++)) | effect in colony forming assay [3]: dose-dependent effect | Combination index (CI) [4, 9]: 0.55 | Synergy [4, 9]: ++ (0.3 < CI < 0.7 (++)) | Combination index (CI) [4, 10]: 0.49 | Synergy [4, 10]: ++ (0.3 < CI < 0.7 (++)) | Combination index (CI) [5, 11]: 0.59 | Synergy [5, 11]: ++ (0.3 < CI < 0.7 (++)) | Combination index (CI) [6, 12]: 0.18 | Synergy [6, 12]: +++ (0.1 < CI < 0.3 (+++)) | Combination index (CI) [6, 13]: 0.52 | Synergy [6, 13]: ++ (0.3 < CI < 0.7 (++)) | Combination index (CI) [6, 14]: 0.65 | Synergy [6, 14]: ++ (0.3 < CI < 0.7 (++)) | Combination index (CI) [6, 15]: 0.05 | Synergy [6, 15]: ++++ (CI < 0.1 (++++)) | Combination index (CI) [6, 16]: 0.53 | Synergy [6, 16]: ++ (0.3 < CI < 0.7 (++)) | Combination index (CI) ([6]; SW620, combination with Taxol): 0.28 | Synergy ([6]; SW620, combination with Taxol): +++ (0.1 < CI < 0.3 (+++))
